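Test compounds were applied to cells in 96-well plates for 48 hours at 5 doses. GI50 = concentration required for 50% inhibition of growth. TGI denotes the concentration required for complete inhibition of growth.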
Key:
Experiment in all cases: DTP human tumour cell line panel, 48 h
EKVX NSCLC = test system: EKVX NSCLC
CAKI-1 renal = test system: CAKI-1 renal
UO-31 renal = test system: UO-31 renal
SK-MEL-5 melanoma = test system: SK-MEL-5 melanoma
UACC-62 melanoma = test system: UACC-62 melanoma
KM12 colon = test system: KM12 colon
DU-145 prostate = test system: DU-145 prostate
RXF 393 renal = test system: RXF 393 renal
TK-10 renal = test system: TK-10 renal
OVCAR-4 ovarian = test system: OVCAR-4 ovarian
HOP-62 NSCLC = test system: HOP-62 NSCLC
SF-539 CNS = test system: SF-539 CNS
SNB-75 CNS = test system: SNB-75 CNS
ACHN renal = test system: ACHN renal
OVCAR-3 ovarian = test system: OVCAR-3 ovarian
786-0 renal = test system: 786-0 renal
HS 578T breast = test system: HS 578T breast
BT-549 breast = test system: BT-549 breast
MDA-MB-435 = test system: MDA-MB-435
OVCAR-5 ovarian = test system: OVCAR-5 ovarian
SF-268 CNS = test system: SF-268 CNS
MALME-3M melanoma = test system: MALME-3M melanoma
NCI-H23 lung = test system: NCI-H23 lung
SK-OV-3 ovarian = test system: SK-OV-3 ovarian
HOP-92 NSCLC = test system: HOP-92 NSCLC
A498 renal = test system: A498 renal
SK-MEL-28 melanoma = test system: SK-MEL-28 melanoma
PC-3 prostate = test system: PC-3 prostate
HCT-116 colon = test system: HCT-116 colon
HCC-2998 colon = test system: HCC-2998 colon
M14 melanoma = test system: M14 melanoma
HL-60(TB) leukemia = test system: HL-60(TB) leukemia
SN12C renal = test system: SN12C renal
SK-MEL-2 melanoma = test system: SK-MEL-2 melanoma
NCI/ADR-RES ovarian = test system: NCI/ADR-RES ovarian
K-562 leukemia = test system: K-562 leukemia
RPMI-8226 leukemia = test system: RPMI-8226 leukemia
MCF7 breast = test system: MCF7 breast
A549 NSCLC = test system: A549 NSCLC
OVCAR-8 ovarian = test system: OVCAR-8 ovarian
MDA-MB-231 breast = test system: MDA-MB-231 breast
HCT-15 colon = test system: HCT-15 colon
SNB-19 CNS = test system: SNB-19 CNS
NCI-H460 lung = test system: NCI-H460 lung
IGROV1 ovarian = test system: IGROV1 ovarian
SW-620 colon = test system: SW-620 colon
MOLT-4 leukemia = test system: MOLT-4 leukemia
NCI-H522 lung = test system: NCI-H522 lung
UACC-257 melanoma = test system: UACC-257 melanoma
CCRF-CEM leukemia = test system: CCRF-CEM leukemia
SF-295 CNS = test system: SF-295 CNS
U251 CNS = test system: U251 CNS
LOX IMVI melanoma = test system: LOX IMVI melanoma
COLO 205 colon = test system: COLO 205 colon
HT29 colon = test system: HT29 colon
NCI-H226 lung = test system: NCI-H226 lung
T-47D breast = test system: T-47D breast

CC[C@]12C=CCN3CC[C@@]4(c5cc(NC(=O)COc6cc(O)c7c(=O)cc(-c8ccccc8)oc7c6)c(OC)cc5N(C)[C@H]4[C@@](O)(C(=O)OC)[C@@H]1OC(C)=O)[C@@H]32
GI50 (EKVX NSCLC): 2 µM | TGI (EKVX NSCLC): 4.6 µM | GI50 (CAKI-1 renal): 1.81 µM | TGI (CAKI-1 renal): 4.29 µM | GI50 (UO-31 renal): 1.68 µM | TGI (UO-31 renal): 3.08 µM | GI50 (SK-MEL-5 melanoma): 1.81 µM | TGI (SK-MEL-5 melanoma): 3.34 µM | GI50 (UACC-62 melanoma): 1.85 µM | TGI (UACC-62 melanoma): 3.69 µM | GI50 (KM12 colon): 2.07 µM | TGI (KM12 colon): 5.14 µM | GI50 (DU-145 prostate): 2.4 µM | TGI (DU-145 prostate): 5.57 µM | GI50 (RXF 393 renal): 1.74 µM | TGI (RXF 393 renal): 3.2 µM | GI50 (TK-10 renal): 2.15 µM | TGI (TK-10 renal): 4.84 µM | GI50 (OVCAR-4 ovarian): 1.88 µM | TGI (OVCAR-4 ovarian): 3.42 µM | GI50 (HOP-62 NSCLC): 1.88 µM | TGI (HOP-62 NSCLC): 3.94 µM | GI50 (SF-539 CNS): 1.67 µM | TGI (SF-539 CNS): 3.2 µM | GI50 (SNB-75 CNS): 1.34 µM | TGI (SNB-75 CNS): 3.97 µM | GI50 (ACHN renal): 1.67 µM | TGI (ACHN renal): 3.2 µM | GI50 (OVCAR-3 ovarian): 2.81 µM | TGI (OVCAR-3 ovarian): 7.17 µM | GI50 (786-0 renal): 1.79 µM | TGI (786-0 renal): 3.53 µM | GI50 (HS 578T breast): 1.99 µM | TGI (HS 578T breast): 4.79 µM | GI50 (BT-549 breast): 1.64 µM | TGI (BT-549 breast): 3.18 µM | GI50 (MDA-MB-435): 1.56 µM | TGI (MDA-MB-435): 3.02 µM | GI50 (OVCAR-5 ovarian): 1.72 µM | TGI (OVCAR-5 ovarian): 3.2 µM | GI50 (SF-268 CNS): 1.98 µM | TGI (SF-268 CNS): 4.51 µM | GI50 (MALME-3M melanoma): 1.58 µM | TGI (MALME-3M melanoma): 2.97 µM | GI50 (NCI-H23 lung): 1.85 µM | TGI (NCI-H23 lung): 3.45 µM | GI50 (SK-OV-3 ovarian): 2.15 µM | TGI (SK-OV-3 ovarian): 4.79 µM | GI50 (HOP-92 NSCLC): 1.36 µM | TGI (HOP-92 NSCLC): 2.98 µM | GI50 (A498 renal): 1.48 µM | TGI (A498 renal): 3.1 µM | GI50 (SK-MEL-28 melanoma): 1.75 µM | TGI (SK-MEL-28 melanoma): 3.2 µM | GI50 (PC-3 prostate): 1.31 µM | TGI (PC-3 prostate): 2.78 µM

C#CCOc1ccc(-c2csc(NC(=O)C=C)n2)cc1NS(=O)(=O)c1cccc2c(N(C)C)cccc12
GI50 (HCT-116 colon): 0.8 µM | TGI (HCT-116 colon): 1.57 µM | GI50 (EKVX NSCLC): 7.92 µM | TGI (EKVX NSCLC): 22.6 µM | GI50 (CAKI-1 renal): 1.38 µM | TGI (CAKI-1 renal): 5.81 µM | GI50 (HCC-2998 colon): 3 µM | TGI (HCC-2998 colon): 9.58 µM | GI50 (M14 melanoma): 1.02 µM | TGI (M14 melanoma): 2.58 µM | GI50 (HL-60(TB) leukemia): 0.683 µM | TGI (HL-60(TB) leukemia): 2.12 µM | GI50 (UO-31 renal): 0.727 µM | TGI (UO-31 renal): 1.43 µM | GI50 (SK-MEL-5 melanoma): 1.68 µM | TGI (SK-MEL-5 melanoma): 6.28 µM | GI50 (SN12C renal): 1.3 µM | TGI (SN12C renal): 5.02 µM | GI50 (SK-MEL-2 melanoma): 0.973 µM | TGI (SK-MEL-2 melanoma): 2.19 µM | GI50 (UACC-62 melanoma): 1.18 µM | TGI (UACC-62 melanoma): 6.05 µM | GI50 (KM12 colon): 2.21 µM | TGI (KM12 colon): 8.27 µM | GI50 (DU-145 prostate): 1.54 µM | TGI (DU-145 prostate): 5.25 µM | GI50 (NCI/ADR-RES ovarian): 1.45 µM | TGI (NCI/ADR-RES ovarian): 50 µM | GI50 (RXF 393 renal): 1.12 µM | TGI (RXF 393 renal): 2.07 µM | GI50 (TK-10 renal): 0.934 µM | TGI (TK-10 renal): 2.04 µM | GI50 (K-562 leukemia): 1.2 µM | TGI (K-562 leukemia): 3.8 µM | GI50 (RPMI-8226 leukemia): 0.947 µM | TGI (RPMI-8226 leukemia): 2.57 µM | GI50 (MCF7 breast): 1.09 µM | TGI (MCF7 breast): 5.1 µM | GI50 (A549 NSCLC): 2.97 µM | TGI (A549 NSCLC): 13.2 µM | GI50 (OVCAR-4 ovarian): 3 µM | TGI (OVCAR-4 ovarian): 22.6 µM | GI50 (HOP-62 NSCLC): 1.64 µM | TGI (HOP-62 NSCLC): 8.04 µM | GI50 (OVCAR-8 ovarian): 0.93 µM | TGI (OVCAR-8 ovarian): 2.02 µM | GI50 (MDA-MB-231 breast): 1.79 µM | TGI (MDA-MB-231 breast): 9.42 µM | GI50 (HCT-15 colon): 0.9 µM | TGI (HCT-15 colon): 2.16 µM | GI50 (SF-539 CNS): 0.861 µM | TGI (SF-539 CNS): 1.78 µM | GI50 (SNB-19 CNS): 2.25 µM | TGI (SNB-19 CNS): 12.1 µM | GI50 (NCI-H460 lung): 2.11 µM | TGI (NCI-H460 lung): 8.52 µM | GI50 (IGROV1 ovarian): 1.09 µM | TGI (IGROV1 ovarian): 2.7 µM | GI50 (SW-620 colon): 0.848 µM | TGI (SW-620 colon): 1.75 µM | GI50 (MOLT-4 leukemia): 1.18 µM | TGI (MOLT-4 leukemia): 3.83 µM | GI50 (NCI-H522 lung): 0.806 µM | TGI (NCI-H522 lung): 1.63 µM | GI50 (SNB-75 CNS): 0.862 µM | TGI (SNB-75 CNS): 4.6 µM | GI50 (ACHN renal): 0.861 µM | TGI (ACHN renal): 1.74 µM | GI50 (UACC-257 melanoma): 2.46 µM | TGI (UACC-257 melanoma): 10 µM | GI50 (CCRF-CEM leukemia): 0.312 µM | TGI (CCRF-CEM leukemia): 2.65 µM | GI50 (786-0 renal): 0.909 µM | TGI (786-0 renal): 1.94 µM | GI50 (HS 578T breast): 1.68 µM | TGI (HS 578T breast): 22.3 µM | GI50 (BT-549 breast): 0.81 µM | TGI (BT-549 breast): 1.52 µM | GI50 (SF-295 CNS): 3.81 µM | TGI (SF-295 CNS): 11.5 µM | GI50 (MDA-MB-435): 1.31 µM | TGI (MDA-MB-435): 3.84 µM | GI50 (U251 CNS): 2.4 µM | TGI (U251 CNS): 8.39 µM | GI50 (OVCAR-5 ovarian): 1.47 µM | TGI (OVCAR-5 ovarian): 6.18 µM | GI50 (SF-268 CNS): 2.46 µM | TGI (SF-268 CNS): 11 µM | GI50 (MALME-3M melanoma): 1.07 µM | TGI (MALME-3M melanoma): 3.46 µM | GI50 (LOX IMVI melanoma): 0.0252 µM | TGI (LOX IMVI melanoma): 0.668 µM | GI50 (NCI-H23 lung): 1.79 µM | TGI (NCI-H23 lung): 7.67 µM | GI50 (SK-OV-3 ovarian): 7.07 µM | TGI (SK-OV-3 ovarian): 15.7 µM | GI50 (HOP-92 NSCLC): 0.819 µM | TGI (HOP-92 NSCLC): 3.61 µM | GI50 (COLO 205 colon): 2.19 µM | TGI (COLO 205 colon): 7.97 µM | GI50 (HT29 colon): 0.838 µM | TGI (HT29 colon): 1.67 µM | GI50 (A498 renal): 1.71 µM | TGI (A498 renal): 6.83 µM | GI50 (NCI-H226 lung): 1.17 µM | TGI (NCI-H226 lung): 3.51 µM | GI50 (SK-MEL-28 melanoma): 1.25 µM | TGI (SK-MEL-28 melanoma): 3.61 µM | GI50 (PC-3 prostate): 1.9 µM | TGI (PC-3 prostate): 8.55 µM | GI50 (T-47D breast): 1.49 µM | TGI (T-47D breast): 6.95 µM

Source: PubChem BioAssay (NCI)
